How the values were obtained:
Spodoptera litura [1] = assay: Drug uptake in Spodoptera litura assessed as penetrated drug level 0.2 ug/insect after 8 hr; format: ADME, organism-based; conditions: in vivo
Spodoptera litura [2] = assay: Drug uptake in Spodoptera litura assessed as surface residue level 0.2 ug/insect after 8 hr; format: ADME, organism-based; conditions: in vivo
[3] = Octanol-water partition coefficient, log P of the compound by shake-flask method; format: physicochemical
Spodoptera litura [4] = assay: Drug uptake in Spodoptera litura assessed as penetrated drug level 0.2 ug/insect after 16 hr; format: ADME, organism-based; conditions: in vivo
Spodoptera litura [5] = assay: Drug uptake in Spodoptera litura assessed as unchanged drug level 0.2 ug/insect after 8 hr; format: ADME, organism-based; conditions: in vivo
Spodoptera litura [6] = assay: Drug uptake in Spodoptera litura assessed as recovered drug level 0.2 ug/insect after 16 hr; format: ADME, organism-based; conditions: in vivo
Spodoptera litura [7] = assay: Drug uptake in Spodoptera litura assessed as recovered drug level 0.2 ug/insect after 8 hr; format: ADME, organism-based; conditions: in vivo
Spodoptera litura [8] = assay: Drug uptake in Spodoptera litura assessed as surface residue level 0.2 ug/insect after 16 hr; format: ADME, organism-based; conditions: in vivo, topical_or_ocular
Spodoptera litura [9] = assay: Drug uptake in Spodoptera litura assessed as unchanged drug level 0.2 ug/insect after 3 hr; format: ADME, organism-based; conditions: in vivo
Spodoptera litura [10] = assay: Drug uptake in Spodoptera litura assessed as penetrated drug level 0.2 ug/insect after 3 hr; format: ADME, organism-based; conditions: in vivo
Spodoptera litura [11] = assay: Drug uptake in Spodoptera litura assessed as recovered drug level 0.2 ug/insect after 3 hr; format: ADME, organism-based; conditions: in vivo
Spodoptera litura [12] = assay: Drug uptake in Spodoptera litura assessed as surface residue level 0.2 ug/insect after 3 hr; format: ADME, organism-based; conditions: in vivo
Spodoptera litura [13] = assay: Drug uptake in Spodoptera litura assessed as unchanged drug level 0.2 ug/insect after 0.5 hr; format: ADME, organism-based; conditions: in vivo
Spodoptera litura [14] = assay: Drug uptake in Spodoptera litura assessed as penetrated drug level 0.2 ug/insect after 1 hr; format: ADME, organism-based; conditions: in vivo
Spodoptera litura [15] = assay: Drug uptake in Spodoptera litura assessed as surface residue level 0.2 ug/insect after 1 hr; format: ADME, organism-based; conditions: in vivo
Spodoptera litura [16] = assay: Drug uptake in Spodoptera litura assessed as recovered drug level 0.2 ug/insect after 0.5 hr; format: ADME, organism-based; conditions: in vivo
Spodoptera litura [17] = assay: Drug uptake in Spodoptera litura assessed as penetrated drug level 0.2 ug/insect after 0.5 hr; format: ADME, organism-based; conditions: in vivo
Spodoptera litura [18] = assay: Drug uptake in Spodoptera litura assessed as recovered drug level 0.2 ug/insect after 1 hr; format: ADME, organism-based; conditions: in vivo
Spodoptera litura [19] = assay: Drug uptake in Spodoptera litura assessed as surface residue level 0.2 ug/insect after 0.5 hr; format: ADME, organism-based; conditions: in vivo, topical_or_ocular
Spodoptera litura [20] = assay: Drug uptake in Spodoptera litura assessed as unchanged drug level 0.2 ug/insect after 1 hr; format: ADME, organism-based; conditions: in vivo
Spodoptera litura [21] = assay: Drug uptake in Spodoptera litura assessed as recovered drug level 0.2 ug/insect after 6 hr; format: ADME, organism-based; conditions: in vivo
Spodoptera litura [22] = assay: Drug uptake in Spodoptera litura assessed as penetrated drug level 0.2 ug/insect after 6 hr; format: ADME, organism-based; conditions: in vivo
Spodoptera litura [23] = assay: Drug uptake in Spodoptera litura assessed as surface residue level 0.2 ug/insect after 6 hr; format: ADME, organism-based; conditions: in vivo
Spodoptera litura [24] = assay: Drug uptake in Spodoptera litura assessed as penetrated drug level 0.2 ug/insect after 4 hr; format: ADME, organism-based; conditions: in vivo
Spodoptera litura [25] = assay: Drug uptake in Spodoptera litura assessed as penetrated drug level 0.2 ug/insect after 2 hr; format: ADME, organism-based; conditions: in vivo
Spodoptera litura [26] = assay: Drug uptake in Spodoptera litura assessed as unchanged drug level 0.2 ug/insect after 2 hr; format: ADME, organism-based; conditions: in vivo
Spodoptera litura [27] = assay: Drug uptake in Spodoptera litura assessed as surface residue level 0.2 ug/insect after 2 hr; format: ADME, organism-based; conditions: in vivo
Spodoptera litura [28] = assay: Drug uptake in Spodoptera litura assessed as recovered drug level 0.2 ug/insect after 4 hr; format: ADME, organism-based; conditions: in vivo
Spodoptera litura [29] = assay: Drug uptake in Spodoptera litura assessed as recovered drug level 0.2 ug/insect after 2 hr; format: ADME, organism-based; conditions: in vivo
Spodoptera litura [30] = assay: Drug uptake in Spodoptera litura assessed as surface residue level 0.2 ug/insect after 4 hr; format: ADME, organism-based; conditions: in vivo
Spodoptera litura [31] = assay: Drug uptake in Spodoptera litura assessed as recovered drug level 0.2 ug/insect after 24 hr; format: ADME, organism-based; conditions: in vivo
Spodoptera litura [32] = assay: Drug uptake in Spodoptera litura assessed as penetrated drug level 0.2 ug/insect after 24 hr; format: ADME, organism-based; conditions: in vivo
Spodoptera litura [33] = assay: Drug uptake in Spodoptera litura assessed as surface residue level 0.2 ug/insect after 24 hr; format: ADME, organism-based; conditions: in vivo, topical_or_ocular
Spodoptera litura [34] = assay: Drug uptake in Spodoptera litura assessed as unchanged drug level 0.2 ug/insect after 4 hr; format: ADME, organism-based; conditions: in vivo

With CC(C)=C[C@@H]1[C@@H](C(=O)OCN2C(=O)C3=C(CCCC3)C2=O)C1(C)C [(1R)-TRANS-TETRAMETHRIN] the Drug uptake (Spodoptera litura [1]) was 21.2%, the Drug uptake (Spodoptera litura [2]) was 63.7% and the logP [3] was 4.73. It also gave a Drug uptake (Spodoptera litura [4]) of 35.2%, a Drug uptake (Spodoptera litura [5]) of 60.3% and a Drug recovery (Spodoptera litura [6]) of 80.1%. The Drug recovery (Spodoptera litura [7]) was 84.9% and the Drug uptake (Spodoptera litura [8]) was 44.9%.
In the case of CCOP(=S)(Oc1ccc(C#N)cc1)c1ccccc1 (centres undefined) [CYANOFENPHOS], the Drug uptake (Spodoptera litura [1]) is reported as 84.6%, the Drug uptake (Spodoptera litura [2]) is reported as 11.3% and the Drug uptake (Spodoptera litura [9]) is reported as 37.4%. The Drug uptake (Spodoptera litura [10]) was 56.5%, the Drug recovery (Spodoptera litura [11]) was 96.4% and the Drug recovery (Spodoptera litura [7]) was 96%. The Drug uptake (Spodoptera litura [12]) was 39.9%.
For COP(=O)(OC)Oc1ccc(C#N)cc1 [CYANOPHOS-OXON], the Drug uptake (Spodoptera litura [13]) was 29.3%, the Drug uptake (Spodoptera litura [14]) was 65.5% and the logP [3] was 0.84. It also gave a Surface residue (Spodoptera litura [15]) of 31.2%, a Drug recovery (Spodoptera litura [16]) of 89.9% and a Drug uptake (Spodoptera litura [17]) of 55.4%. It also gave a Drug recovery (Spodoptera litura [18]) of 96.7% and a Drug uptake (Spodoptera litura [19]) of 34.5%.
With COP(=S)(OC)Oc1ccc(C#N)cc1 [CYANOPHOS] the Drug uptake (Spodoptera litura [20]) was 34.3%, the Drug uptake (Spodoptera litura [14]) was 39.2% and the logP [3] was 2.65. It also gave a Surface residue (Spodoptera litura [15]) of 37.4%, a Drug recovery (Spodoptera litura [21]) of 80.9% and a Drug recovery (Spodoptera litura [18]) of 76.6%. For the same compound, the Drug uptake (Spodoptera litura [22]) was 72.8% and the Drug uptake (Spodoptera litura [23]) was 8.1%.
Compound CCOc1ccc(NC(=O)OC(C)C)cc1OCC [DIETHENOFENCARB] has a logP [3] of 3.02, a Drug uptake (Spodoptera litura [9]) of 52.6% and a Drug uptake (Spodoptera litura [4]) of 63.5%. It also gave a Drug uptake (Spodoptera litura [10]) of 31.9%, a Drug recovery (Spodoptera litura [11]) of 88.5% and a Drug recovery (Spodoptera litura [6]) of 81.7%. The Drug uptake (Spodoptera litura [12]) was 56.6% and the Drug uptake (Spodoptera litura [8]) was 18.1%.
For COP(=S)(OC)Oc1ccc([N+](=O)[O-])c(C)c1 [FENITROTHION], the Drug uptake (Spodoptera litura [20]) was 40.9%, the Drug uptake (Spodoptera litura [14]) was 51.2% and the Surface residue (Spodoptera litura [15]) was 43.6%. It also gave a Drug recovery (Spodoptera litura [21]) of 81.8%, a Drug recovery (Spodoptera litura [18]) of 94.8% and a Drug uptake (Spodoptera litura [22]) of 71%. The Drug uptake (Spodoptera litura [23]) was 10.8%.
COP(=O)(OC)Oc1ccc([N+](=O)[O-])c(C)c1 [FENITROXON] showed a Drug uptake (Spodoptera litura [13]) of 42.7%, a Drug recovery (Spodoptera litura [16]) of 96.4% and a Drug uptake (Spodoptera litura [10]) of 62.4%. The Drug uptake (Spodoptera litura [17]) was 51.5%, the Drug recovery (Spodoptera litura [11]) was 87.8% and the Drug uptake (Spodoptera litura [19]) was 44.9%. For the same compound, the Drug uptake (Spodoptera litura [12]) was 25.3%.
With CC1(C)C(C(=O)OC(C#N)c2cccc(Oc3ccccc3)c2)C1(C)C (centres undefined) [FENPROPATHRIN] the Drug uptake (Spodoptera litura [24]) was 13.1%, the Drug uptake (Spodoptera litura [25]) was 22% and the Drug uptake (Spodoptera litura [26]) was 66.5%. It also gave a Drug uptake (Spodoptera litura [27]) of 68.8%, a Drug recovery (Spodoptera litura [28]) of 82.3% and a logP [3] of 6. It also gave a Drug recovery (Spodoptera litura [29]) of 90.8% and a Drug uptake (Spodoptera litura [30]) of 69.2%.
Compound CCOP(=S)(OCC)Oc1ccc([N+](=O)[O-])cc1 [PARATHION] has a Drug uptake (Spodoptera litura [20]) of 56.8%, a Drug uptake (Spodoptera litura [14]) of 35% and a Surface residue (Spodoptera litura [15]) of 60.6%. The Drug recovery (Spodoptera litura [21]) was 89.8%, the Drug recovery (Spodoptera litura [18]) was 95.6% and the Drug uptake (Spodoptera litura [22]) was 78.9%. The Drug uptake (Spodoptera litura [23]) was 10.9%.
CC(COc1ccc(Oc2ccccc2)cc1)Oc1ccccn1 (centres undefined) [PYRIPROXYFEN] showed a Drug uptake (Spodoptera litura [24]) of 40.3%, a Drug recovery (Spodoptera litura [31]) of 84% and a Drug uptake (Spodoptera litura [32]) of 76.4%. It also gave a Drug uptake (Spodoptera litura [33]) of 7.6%, a Drug recovery (Spodoptera litura [28]) of 96.7% and a logP [3] of 5.31. It also gave a Drug uptake (Spodoptera litura [34]) of 55.3% and a Drug uptake (Spodoptera litura [30]) of 56.4%.
Compound CC(C)(C)N(NC(=O)c1ccccc1)C(=O)c1ccccc1 [RH-5849] has a Drug uptake (Spodoptera litura [33]) of 50.2%, a Drug uptake (Spodoptera litura [2]) of 52.3% and a Drug recovery (Spodoptera litura [5]) of 38.4%.

From ChEMBL document CHEMBL3046197, “Relation between Penetration Rates of Pesticides and Partition Coefficients in Topical Application to Spodoptera litura” (J Pestic Sci, 2001)
